The values below come from US9062051B2, “Compounds and pharmaceutical compositions thereof for the treatment of proliferative disorders” (GALAPAGOS NV, priority 2014, dated 2015).

As a reminder, the AUC is concentration integrated over time. A low value points to low exposure.

The nature of the data set: Pharmacokinetics in mice (exposure, AUC). Format: in vivo. To be noted: male, CD1, plasma, mouse, po. The protocol:
This study was performed with 42 naïve male CD1 mice (18-20 g, 4-5 weeks old). Mice are obtained from Janvier, Le Genest St Isle, France.
A controlled environment was maintained in the room with optimal conditions of approximately 15 air changes per hour, a temperature of 22±2 C, a relative humidity of 30-70% and a 12 hour light/12 hour dark cycle (nightlight during the night period).
Pelleted diet for rodents (UAR A04C-10) was used and was provided ad libitum. Before p.o. dosing, the animals are deprived of food for at least 12 hours before compound administration and 4 hours after administration. All animals had free access to tap water.
[…] The i.v. bolus administration is given with a dose volume of 5 mL/kg and the oral administration is given with a dose volume of 10 mL/kg. Actual dose volumes are based on the mean of 10 body weights.
The vehicle used to formulate compounds for oral administration is methylcellulose in water (0.5% in water)
From all animals approximately 500 μL blood samples are collected by intra-cardiac puncture under gaseous anesthesia and placed into tubes containing Li-heparin as anticoagulant. Blood samples are collected at various time points (i.v.: 0.05, 0.25, 0.5, 1, 3, 5 and 8 hours after dosing; p.o.: 0.25, 0.5, 1, 3, 5, 8 and 24 hours after dosing). Each mouse is sampled once and euthanized.
Blood is kept on ice. Within 1 hour after sampling, blood is centrifuged at 5,000 rpm for 10 min at 4° C. Immediately after centrifugation, the resulting plasma samples are collected into polypropylene tubes and are kept frozen at −20° C. pending bioanalysis.
Plasma samples are assayed by LC-MS/MS. Plasma proteins are precipitated with an excess of methanol containing the internal standard and the corresponding supernatant is injected on a C18 column. Analytes are eluted out the HPLC system by increasing the percentage of the organic mobile phase. An API4000 mass spectrometer (AB Sciex™) is used for the detection and quantification.
Pharmacokinetic parameters are calculated by non-compartmental analysis using WinNonlin® software (Pharsight, version 5.2).

`Cc1ccc(NC(=O)c2cccc(C(F)(F)F)c2)cc1-c1ccc2c([C@H](C)O)n[nH]c2n1` [Compound 55, N-{3-[3-((S)-1-Hydroxy-ethyl)-1H-pyrazolo[3,4-b]pyridin-6-yl]-4-methyl-phenyl}-3-trifluoromethyl-benzamide]: the AUC runs as follows: (5 mg/kg) 851 ng·h/mL; (30 mg/kg) 31600 ng·h/mL.
The molecule `Cc1ccc(NC(=O)c2cccc(C(F)(F)F)c2)cc1-c1cc(C)c2c(N)n[nH]c2n1` [Compound A, N-(3-(3-amino-4-methyl-1H-pyrazolo[3,4-b]pyridin-6-yl)-4-methylphenyl)-3-(trifluoromethyl)benzamide] displayed an AUC (30 mg/kg) of 1130 ng·h/mL.
